Data published in patent publication US6191152A, “2-(1,2,4-triazole-1-yl)-1,3,4-thiadiazole derivatives having an effect on the C.N.S. and the heart” (EGIS Gyogyszergyar Rt., priority 1997, dated 2001).
pIC50: −log10 of the molar value.

Legend:
[1] = system: isolated rat thoracic aorta; test: Vascular relaxing effect in potassium chloride (20 mM KCl) contracted isolated rat thoracic aorta; parameters: species or system rat (male SPRD); conditions: for pIC50: Rattus norvegicus, 20 mM KCl contracted strips, 37° C., read-out: IC50 (vascular relaxation in isolated rat thoracic aorta)
Method: 1. Measurement of Vascular Relaxing Effect in Potassium Chloride Contracted Isolated rat Thoracic Aorta
Experiments were performed in thoracic aortas obtained from male SPRD rats weighing 250 to 300 g. Thoracic aortas excised from rats killed by decapitation and ensanguination were cleaned of fat and connective tissue, then were immediately placed in carbogenized TYRODE solution. The composition of the normal TYRODE solution was the following (in mM): NaCl 114.7, KCl 3.7, CaCl2 3.6, MgCl2 0.49, NaHCO3 19.9, NaH2 PO4 0.32, glucose 5.1.
Two mm wide and 20 to 25 mm long strips were cut from the aortas along a helical line at 45° angle. Aortic strips were mounted vertically between two cotton threads in 10 ml organ chambers, the lower threads were attached to the organ chambers and the upper threads were connected to isometric force transducers. The strips were incubated under 1 g resting tension at 37° C. for 120 minutes, then resting vascular tone was recorded. Then the strips were contracted with a TYRODE solution containing 20 mM KCl. The composition of the high potassium TYRODE solution was the following (in mM): NaCl 94.7, KCl 20, CaCl2 3.6, MgCl2 0.49, NaHCO3 19.9, NaH2 PO4 0.32, glucose 5.1.
When stable vascular tone developed, increasing doses of the test substance were added to the organ bath. The effects of each test substance were measured at least in 3 tissue preparations obtained from different animals. Decreases in vascular tension caused by the test substances were expressed as percentage changes and IC50 for each tissue preparation was determined by sigmoid (in few casses linear) curve fitting.
For comparison, cromakalim i.e. (±)-trans-3,4-dihydro-3-hydroxy-2,2-dimethyl-4-(2-oxo-1-pyrrolidinyl)-2H-1-benzopyrane-6-carbonitrile was used.

[2] = system: isolated guinea-pig papillary muscle; test: Effective refractory period (ERP) prolonging effect in isolated guinea-pig right ventricular papillary muscle, in vitro; parameters: species or system guinea-pig (male); conditions: for ERP change at 10^-4 M / ERP change at 10^-5 M: 30 minutes incubation, mean of at least four preparations
Source text: 2. Measurement of Effective Refracter Period in Guinea-pig Right Ventricular Papillary Muscle, in Vitro.
Effective refracter period (ERP) is regarded to be the shortest time interval between two identical electrical stimuli when both can evoke a twitch in the papillary muscle. A second stimulus applied earlier than the ERP is not effective. Compounds prolonging ERP can have antiarrhythmic effect. This method is useful primarily for testing antiarrhythmic agents belonging to class III according to the Vaughan Williams classification /Bexton, R. S. and Camm. A., J. Pharmacol. Ther., 17, 315 (1982)/.
Experiments were performed in a Schuler-type organ bath system having 4 channels. Male guinea-pigs weighing 450 to 750 g were killed by a blow on the head and ensanguinated. The heart was rapidly excised and papillary muscles of appropriate size (lower than 1 mm in diameter) were dissected from the right ventricle. The preparations were vertically mounted in 20 ml organ chambers containing Krebs solution bubbled with carbogen (consisting of 95% of O2 and 5% of CO2) and maintained at 35° C. The upper end of the muscles was connected with cotton threads to force-displacement transducers coupled to a recorder for measuring isometric tension via DC-bridge amplifiers. The lower end of the papillary muscles was pinned to the organ chamber with a silver hook that was also used as a stimulating electrode. The other electrode was immersed into the organ bath and had no direct contact with the preparation. The composition of the Krebs solution was the following (in mm): NaCl 118, KCl 4.8, NaHCO3 27.2, glucose 11.1, MgSO4 1.2, KH2 PO4 1, CaCl2 2.6, pH=7.4.
The preparations were equilibrated for 120 minutes under a resting tension of 1 g. During equilibration they were electrically stimulated at a rate of 2 Hz with 1 msec rectangular pulses that were above the diastolic threshold voltage by 10%. ERP was determined using a standard extrastimulus technique. Extrastimuli (S2) were interjected between the normal stimuli (S1) in such a way that the S1 -S2 interval was initially below the refracter period of the tissue. The S1 -S2 interval was then widened by increments of 1 msec until the extrastimulus (S2) evoked twitch of the papillary muscle. The force of the twitch caused by S2 is larger than those caused by normal (S1) stimuli (postextrasystolic potentiation). The equipment measured the shortest S1 -S2 interval at which the extrastimulus evoked a twitch that was larger than the force of control twitches by 25%. This interval is equivalent with the ERP.
The experimental protocol was as follows:
Two control ERP measurements were performed 20 minutes apart, then appropriate amount of the test substance was added to produce 10^-4 M concentration in the bathing solution. After 30 minutes incubation with the test substance, two ERP measurements were performed 30 minutes apart.
When the test substance increased ERP at 10^-4 M by 40 msec or more, its effect on ERP was tested also at 10^-5 M.
The effect of the test substances was characterized by the difference between the first treated and the second control measurements. Individual data obtained from four different preparations, at least, were averaged. The reference substance used was sotalol i.e. N-[4-/1-hydroxy-2-(1-methylethylamino)ethyl/plenyl]methane sulfonamide.

| SMILES | pIC50 [1] | vascular relaxation of isolated rat thoracic aorta (in words) [1] | ERP prolongation (in words) [2] | ERP change at 10^-4 M [2] | ERP change at 10^-5 M [2] |
| --- | --- | --- | --- | --- | --- |
| CC1(C)Oc2ccc(C#N)cc2[C@@H](N2CCCC2=O)[C@@H]1O (racemic) [cromakalim, (±)-trans-3,4-dihydro-3-hydroxy-2,2-dimethyl-4-(2-oxo-1-pyrrolidinyl)-2H-1-benzopyrane-6-carbonitrile, reference compound] | 6.89 |  |  |  |  |
| CN(C)CCCOc1ccccc1-c1nnc(-n2nc(N(C)C)nc2N)s1 [Example 29, 2-(5-Amino-3-dimethylamino-1H-1,2,4-triazole-1-yl)-5-/ 2-(3-dimethylaminopropoxy)phenyl/-1,3,4-thiadiazole] | 7.15 | relaxed isolated rat thoracic aorta more effectively than the K^+ channel opener and Ca^2+ channel blocker reference substances |  |  |  |
| CC(C)Sc1nc(N)n(-c2nnc(-c3ccccc3OCCCN(C)C)s2)n1 [Example 30, 2-/5-Amino-3-(2-methylethylthio)-1H-1,2,4-triazole-1-yl/-5-/ 2-(3-dimethylaminopropoxy)phenyl/-1,3,4-thiadiazole] | 7.17 | relaxed isolated rat thoracic aorta more effectively than the K^+ channel opener and Ca^2+ channel blocker reference substances |  |  |  |
| CN(C)CCCOc1ccccc1-c1nnc(-n2nc(N3CCCCC3)nc2N)s1 [Example 32, 2-(5-Amino-3-piperidino-1H-1,2,4-triazole-1-yl)-5-/ 2-(3-dimethylaminopropoxy)phenyl/-1,3,4-thiadiazole] |  |  | remarkable also at 10^-5 M | 155 msec | 158 msec |
| CCN(CC)CCOc1ccc(-c2nnc(-n3nc(SC)nc3N)s2)cc1 [Example 36, 2-(5-Amino-3-methylthio-1H-1,2,4-triazole-1-yl)-5-/ 4-(2-diethylaminoethoxy)phenyl/-1,3,4-thiadiazole] |  |  |  | 53 msec | 15 msec |
| CSc1nc(N)n(-c2nnc(-c3ccccc3OCCCN3CCCC3)s2)n1 [Example 43, 2-(5-Amino-3-methylthio-1H-1,2,4-triazole-1-yl)-5-/ 2-(3-pyrrolidinopropoxy)phenyl/-1,3,4-thiadiazole] |  |  |  | 66 msec | 34 msec |
| CN(C)CCCOc1ccc(-c2nnc(-n3nc(N4CCN(C)CC4)nc3N)s2)cc1 [Example 47, 2-/5-Amino-3-(4-methylpiperazine-1-yl)-1H-1,2,4-triazole-1-yl/-5-/ 4-(3-dimethylaminopropoxy)phenyl/-1,3,4-thiadiazole] |  |  |  | 123 msec | 2 msec |
| C=CCN(CC=C)c1nc(N)n(-c2nnc(-c3ccccc3OCCCN(C)C)s2)n1 [Example 49, 2-(5-Amino-3-diallylamino-1H-1,2,4-triazole-1-yl)-5-/ 2-(3-dimethylaminopropoxy)phenyl/-1,3,4-thiadiazole] | 6.77 |  |  |  |  |
| COc1ccc(CCN(C)CCCOc2ccccc2-c2nnc(-n3nc(N4CCCCC4)nc3N)s2)cc1OC [Example 99, 2-(5-Amino-3-piperidino-1H-1,2,4-triazole-1-yl)-5-{2-[3-methyl-3-/ 2-(3,4-dimethoxyphenylethyl)amino/-propoxy]phenyl}-1,3,4-thiadiazole] | 6.89 |  |  |  |  |
| COc1ccc(CCN(C)CCCOc2ccccc2-c2nnc(-n3nc(SC(C)C)nc3N)s2)cc1OC [Example 101, 2-/5-Amino-3-(1-methylethylthio)-1H-1,2,4-triazole-1-yl/-5-{2-[3-methyl-3-/2-(3,4-dimethoxyphenylethyl)amino/propoxy]-phenyl}-1,3,4-thiadiazole] | 7.12 | relaxed isolated rat thoracic aorta more effectively than the K^+ channel opener and Ca^2+ channel blocker reference substances |  |  |  |
| COc1ccc(CCN(C)CCCOc2cccc(-c3nnc(-n4nc(SC)nc4N)s3)c2)cc1OC [Example 105, 2-(5-Amino-3-methylthio-1H-1,2,4-triazole-1-yl)-5-{3-[3-methyl-3-/ 2-(3,4-dimethoxyphenylethyl)amino/propoxy]phenyl}-1,3,4-thiadiazole] | < 6.00 |  |  | 62 msec | 14 msec |
| COc1ccc(CCN(C)CCCOc2ccc(-c3nnc(-n4nc(SC)nc4N)s3)cc2)cc1OC [Example 108, 2-(5-Amino-3-methylthio-1H-1,2,4-triazole-1-yl)-5-{4-[3-methyl-3-/ 2-(3,4-dimethoxyphenylethyl)amino/propoxy]phenyl}-1,3,4-thiadiazole] | < 5.00 |  |  | 66 msec | 29 msec |
| CC(C)NCC(O)c1ccc(NS(C)(=O)=O)cc1 (centres unmarked) [sotalol, N-[4-/1-hydroxy-2-(1-methylethylamino)ethyl/plenyl]methane sulfonamide, reference compound] |  |  |  | 47 msec | 26 msec |
